Laboratory results from US20220304999A1, “REBAMIPIDE FOR USE IN PREVENTION AND/OR TREATMENT OF ARTERIAL STIFFNESS” (SQUARE POWER LTD., priority 2019, published 2022).

Assay: Carotid to femoral pulse wave velocity (cfPWV) study in patients suffering from arterial stiffness
Assay type: in vivo, human
Source text: Aging of cardiovascular system is associated with worsening of arterial cushion function resulting in higher pulse pressure (systolic-diastolic amplitude). Pulse wave velocity (PWV), i.e. velocity at which the blood pressure pulse propagates through the circulatory system, is the gold standard method for arterial stiffness quantification. It can be readily measured non-invasively in humans, is highly reproducible, and predicts future cardiovascular events and all-cause mortality independent of conventional cardiovascular risk factors.
Pulse wave travels along the arteries at a velocity rate, which varies according to wall elasticity: the less elastic the wall, the higher the velocity of PW propagation. PWV measures the time of travel of the pressure wave over a known distance and is calculated as the distance between the two positions of the pulse transducer divided by the time delay measured between pressure upstroke at each site.
To study the effect of rebamipide on arteries, a small study on patients suffering from arterial stiffness was performed. […] Carotid to femoral PWV (cfPWV) was measured in both groups at 0, 3, 6, 9 and 12 months.

Structure (SMILES): O=C(NC(Cc1cc(=O)[nH]c2ccccc12)C(=O)O)c1ccc(Cl)cc1 (centres unmarked) [rebamipide, 2-[(4-chlorobenzoyl)amino]-3-(2-oxo-1H-quinolin-4-yl)propanoic acid]
- arterial stiffness (carotid to femoral PWV) (patients with PWV above normal for age, no atherosclerosis or hyperlipidemia, rebamipide 200 mg three times a day for 12 months vs placebo, cfPWV at 0, 3, 6, 9, 12 months): gradually decreasing
- difference in arterial stiffness between rebamipide and placebo groups (rebamipide 200 mg three times a day vs placebo, 12 months): reached statistical significance
